Reference: paper PMC3656107, “Polymorphisms in the F8 Gene and MHC-II Variants as Risk Factors for the Development of Inhibitory Anti-Factor VIII Antibodies during the Treatment of Hemophilia A: A Computational Assessment” (PLoS Computational Biology, 2013)

Key:
[1] = molecular target: T1, MHC-II DRB1*15:03 (Homo sapiens, UniProt P01903+P01911, Y59H); assay: Cell-free REVEAL class II stability assay; settings: half-life of peptide-MHC-II complex (h, capped at 120) x Binding Score / 100, conformational ELISA
T1 construct: purchased ProImmune
Outline: (§1)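 Readout is a conformational ELISA with anti-HLA antibody, scoring assembly or percent denaturation of peptide–MHC-II complexes sampled at timed points. Association ran 96 hr at 10°C. The reported stability score is half-life multiplied by Binding Score, divided by 100.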

[2] = molecular target: T2, MHC-II DRB1*07:01 (Homo sapiens, UniProt P01903+P01911, A100R/A102G/A103Q/D57E/D86V/E43K/F76Y/K127E/L162R/M171V/P40G/Q125H/Q99D/R33Q/R42Y/R54Q/S133A/S66F/T210M/V115G/Y107V/Y59L/Y89S); assay: Cell-free REVEAL class II stability assay; settings: half-life of peptide-MHC-II complex (h, capped at 120) x Binding Score / 100, conformational ELISA
Outline: as §1

[3] = molecular target: T3, MHC-II DRB1*04:01 (Homo sapiens, UniProt P01903+P01911, A100K/A169T/F76Y/I96L/K127E/L162R/M171V/N62H/P40V/Q125Y/R42H/S133A/S149N/S66Y/V115G/V209L/W38E); assay: Cell-free REVEAL class II stability assay; settings: half-life of peptide-MHC-II complex (h, capped at 120) x Binding Score / 100, conformational ELISA
Outline: as §1

[4] = molecular target: T4, MHC-II DRB1*15:01 (Homo sapiens, UniProt P01903+P01911); assay: Cell-free REVEAL class II stability assay; settings: half-life of peptide-MHC-II complex (h, capped at 120) x Binding Score / 100, conformational ELISA
T4 construct: purchased ProImmune
Outline: as §1

[5] = molecular target: T5, MHC-II DRB1*11:01 (Homo sapiens, UniProt P01903+P01911, A100R/A169T/A87E/I96F/K41T/L162R/M171V/P40S/Q125H/Q178H/Q39Y/Q99D/R42S/S66Y/T262R/V115G/W38E); assay: Cell-free REVEAL class II stability assay; settings: half-life of peptide-MHC-II complex (h, capped at 120) x Binding Score / 100, conformational ELISA
Outline: as §1

[6] = molecular target: T6, MHC-II DRB1*03:01 (Homo sapiens, UniProt P01903+P01911, A100K/A102G/A103R/A169T/F55Y/I96L/K41T/L162R/M171V/P40S/Q125H/Q178H/Q39Y/R42S/S66N/T106N/T262R/W38E/Y61H); assay: Cell-free REVEAL class II stability assay; settings: half-life of peptide-MHC-II complex (h, capped at 120) x Binding Score / 100, conformational ELISA
Outline: as §1

[7] = molecular target: T1, MHC-II DRB1*15:03; assay: Cell-free REVEAL class II binding assay; settings: signal of test peptide as percentage of allele-specific positive control peptide, fluorescence, conformation-specific monoclonal antibody
Outline: (§2)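 Test peptides incubated with MHC-II protein; correctly folded complexes then detected with a specific monoclonal antibody giving a fluorescence signal. Each peptide scored quantitatively against that allele's positive control epitope, expressed as a percentage.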

[8] = molecular target: T2, MHC-II DRB1*07:01; assay: Cell-free REVEAL class II binding assay; settings: signal of test peptide as percentage of allele-specific positive control peptide, fluorescence, conformation-specific monoclonal antibody
Outline: as §2

[9] = molecular target: T3, MHC-II DRB1*04:01; assay: Cell-free REVEAL class II binding assay; settings: signal of test peptide as percentage of allele-specific positive control peptide, fluorescence, conformation-specific monoclonal antibody
Outline: as §2

[10] = molecular target: T4, MHC-II DRB1*15:01; assay: Cell-free REVEAL class II binding assay; settings: signal of test peptide as percentage of allele-specific positive control peptide, fluorescence, conformation-specific monoclonal antibody
Outline: as §2

[11] = molecular target: T5, MHC-II DRB1*11:01; assay: Cell-free REVEAL class II binding assay; settings: signal of test peptide as percentage of allele-specific positive control peptide, fluorescence, conformation-specific monoclonal antibody
Outline: as §2

[12] = molecular target: T6, MHC-II DRB1*03:01; assay: Cell-free REVEAL class II binding assay; settings: signal of test peptide as percentage of allele-specific positive control peptide, fluorescence, conformation-specific monoclonal antibody
Outline: as §2

T5 sequence (P01903 26-254 limits assumed, other chains not shown): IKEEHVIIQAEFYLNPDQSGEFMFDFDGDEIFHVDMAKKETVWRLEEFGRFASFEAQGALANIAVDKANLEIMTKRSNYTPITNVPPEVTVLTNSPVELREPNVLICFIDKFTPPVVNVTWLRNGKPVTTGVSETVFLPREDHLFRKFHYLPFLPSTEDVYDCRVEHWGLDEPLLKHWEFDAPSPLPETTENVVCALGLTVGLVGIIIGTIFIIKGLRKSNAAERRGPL
T1 sequence (P01903 26-254, other chains not shown): as the sequence (P01903 26-254 limits assumed, other chains not shown) above
T6 sequence (P01903 26-254 limits assumed, other chains not shown): as above

PIIARYIRLHPTHYS [synthetic wild type FVIII 15 mer peptide]
Stability Index [1]: 13.3 | Stability Index [2]: 0.0 | Stability Index [3]: 6.9 | Stability Index [4]: 1100.9 | Stability Index [5]: 9.0 | Stability Index [6]: 0.0 | Binding Score [7]: 11.1% | Binding Score [8]: 0.0% | Binding Score [9]: 25.4% | Binding Score [10]: 917.4% | Binding Score [11]: 118.8% | Binding Score [12]: 0.3%

NNPKEWLQVDFQKTM [synthetic wild type FVIII 15 mer peptide, region of ns-SNP M2238V]
Stability Index [1]: 0.1 | Stability Index [2]: 0.1 | Stability Index [3]: 0.1 | Stability Index [4]: 0.2 | Stability Index [5]: 0.1 | Stability Index [6]: 0.0 | Binding Score [7]: 0.1% | Binding Score [8]: 0.6% | Binding Score [9]: 1.7% | Binding Score [10]: 0.1% | Binding Score [11]: 3.5% | Binding Score [12]: 12.6%

SGYTFKHKMVYEDTL [synthetic wild type FVIII 15 mer peptide]
Stability Index [1]: 0.0 | Stability Index [2]: 0.0 | Stability Index [3]: 0.1 | Stability Index [4]: 1.2 | Stability Index [5]: 2.2 | Stability Index [6]: 0.0 | Binding Score [7]: 0.0% | Binding Score [8]: 0.0% | Binding Score [9]: 1.0% | Binding Score [10]: 1.0% | Binding Score [11]: 14.9% | Binding Score [12]: 1.3%

IIMYSLDGKKWQTYR [synthetic wild type FVIII 15 mer peptide]
Stability Index [1]: 57.3 | Stability Index [2]: 0.1 | Stability Index [3]: 0.7 | Stability Index [4]: 2223.6 | Stability Index [5]: 1.4 | Stability Index [6]: 1.7 | Binding Score [7]: 47.8% | Binding Score [8]: 0.0% | Binding Score [9]: 8.3% | Binding Score [10]: 1853.0% | Binding Score [11]: 23.3% | Binding Score [12]: 6.0%

PQVNNPKEWLQVDFQ [synthetic wild type FVIII 15 mer peptide]
Stability Index [1]: 0.0 | Stability Index [2]: 0.0 | Stability Index [3]: 0.0 | Stability Index [4]: 0.2 | Stability Index [5]: 0.0 | Stability Index [6]: 0.0 | Binding Score [7]: 0.0% | Binding Score [8]: 0.0% | Binding Score [9]: 0.0% | Binding Score [10]: 0.1% | Binding Score [11]: 0.1% | Binding Score [12]: 0.0%

SDPRCLTRYYSSFVN [synthetic wild type FVIII 15 mer peptide]
Stability Index [1]: 16.6 | Stability Index [2]: 0.0 | Stability Index [3]: 0.2 | Stability Index [4]: 285.5 | Stability Index [5]: 0.5 | Stability Index [6]: 0.0 | Binding Score [7]: 13.8% | Binding Score [8]: 0.1% | Binding Score [9]: 2.4% | Binding Score [10]: 237.9% | Binding Score [11]: 7.8% | Binding Score [12]: 0.5%

GPTKSDPRCLTRYYS [synthetic wild type FVIII 15 mer peptide]
Stability Index [1]: 0.0 | Stability Index [2]: 0.0 | Stability Index [3]: 0.1 | Stability Index [4]: 7.2 | Stability Index [5]: 0.0 | Stability Index [6]: 1.6 | Binding Score [7]: 3.8% | Binding Score [8]: 0.0% | Binding Score [9]: 0.5% | Binding Score [10]: 63.6% | Binding Score [11]: 1.2% | Binding Score [12]: 4.8%

FSSLYISQFIIMYSL [synthetic wild type FVIII 15 mer peptide]
Stability Index [1]: 0.1 | Stability Index [2]: 0.0 | Stability Index [3]: 0.4 | Stability Index [4]: 28.0 | Stability Index [5]: 0.0 | Stability Index [6]: 0.0 | Binding Score [7]: 0.3% | Binding Score [8]: 0.0% | Binding Score [9]: 1.5% | Binding Score [10]: 23.3% | Binding Score [11]: 0.3% | Binding Score [12]: 0.6%

PRCLTRYYSSFVNME [synthetic wild type FVIII 15 mer peptide]
Stability Index [1]: 86.8 | Stability Index [2]: 0.0 | Stability Index [3]: 0.7 | Stability Index [4]: 404.2 | Stability Index [5]: 1.2 | Stability Index [6]: 0.1 | Binding Score [7]: 72.3% | Binding Score [8]: 0.0% | Binding Score [9]: 9.6% | Binding Score [10]: 336.9% | Binding Score [11]: 20.5% | Binding Score [12]: 0.9%

YTFKHKMVYEDTLTL [synthetic wild type FVIII 15 mer peptide]
Stability Index [1]: 0.1 | Stability Index [2]: 0.0 | Stability Index [3]: 0.5 | Stability Index [4]: 1.1 | Stability Index [5]: 13.7 | Stability Index [6]: 0.0 | Binding Score [7]: 0.0% | Binding Score [8]: 0.0% | Binding Score [9]: 5.0% | Binding Score [10]: 0.9% | Binding Score [11]: 31.6% | Binding Score [12]: 0.8%

LFLLSTRQNVEGSYD [synthetic wild type FVIII 15 mer peptide, region of ns-SNP D1241E]
Stability Index [1]: 0.0 | Stability Index [2]: 0.3 | Stability Index [3]: 2.8 | Stability Index [4]: 0.1 | Stability Index [5]: 23.6 | Stability Index [6]: 17.5 | Binding Score [7]: 0.2% | Binding Score [8]: 0.3% | Binding Score [9]: 17.9% | Binding Score [10]: 1.0% | Binding Score [11]: 92.0% | Binding Score [12]: 30.5%

KTDPWFAHRTPMPKI [synthetic wild type FVIII 15 mer peptide, region of ns-SNP R776G]
Stability Index [1]: 0.0 | Stability Index [2]: 1.2 | Stability Index [3]: 0.5 | Stability Index [4]: 0.1 | Stability Index [5]: 0.1 | Stability Index [6]: 0.0 | Binding Score [7]: 0.2% | Binding Score [8]: 4.0% | Binding Score [9]: 8.2% | Binding Score [10]: 0.1% | Binding Score [11]: 0.5% | Binding Score [12]: 0.0%

TVEDGPTKSDPRCLT [synthetic wild type FVIII 15 mer peptide]
Stability Index [1]: 0.0 | Stability Index [2]: 0.0 | Stability Index [3]: 0.0 | Stability Index [4]: 0.0 | Stability Index [5]: 0.0 | Stability Index [6]: 0.0 | Binding Score [7]: 0.0% | Binding Score [8]: 0.0% | Binding Score [9]: 0.2% | Binding Score [10]: 0.0% | Binding Score [11]: 0.0% | Binding Score [12]: 0.2%

AHRTPMPKIQNVSSS [synthetic wild type FVIII 15 mer peptide, region of ns-SNP R776G]
Stability Index [1]: 0.1 | Stability Index [2]: 0.0 | Stability Index [3]: 0.1 | Stability Index [4]: 0.1 | Stability Index [5]: 0.0 | Stability Index [6]: 0.0 | Binding Score [7]: 0.4% | Binding Score [8]: 0.0% | Binding Score [9]: 1.3% | Binding Score [10]: 0.0% | Binding Score [11]: 0.2% | Binding Score [12]: 0.0%

IFNPPIIARYIRLHP [synthetic wild type FVIII 15 mer peptide]
Stability Index [1]: 4.5 | Stability Index [2]: 0.0 | Stability Index [3]: 0.0 | Stability Index [4]: 1469.4 | Stability Index [5]: 6.3 | Stability Index [6]: 0.0 | Binding Score [7]: 3.8% | Binding Score [8]: 0.0% | Binding Score [9]: 1.7% | Binding Score [10]: 1224.5% | Binding Score [11]: 61.5% | Binding Score [12]: 0.7%
